# Results as given in PMC6550521, “Stress-Induced Changes in the Lipid Microenvironment of β-(1,3)-D-Glucan Synthase Cause Clinically Important Echinocandin Resistance in Aspergillus fumigatus” (mBio, 2019).
# Starred links: 1 amine or outer side, 2 acyl side, 3 side chain; linkers in the order of their positions; H or OH if unused. Positions of bridges follow the written chain, without caps; N, C: chain ends. Non-standard residues stand in square brackets, D forms with d. Residues, ends and D or L forms follow the SMILES beside them. *: point of attachment. Orn(4R-OH,5R-OCH2CH2NMe3+) = C[N+](C)(C)CCO[C@@H](N[*:3])[C@H](O)C[C@H](N[*:1])C(=O)[*:2]; hTyr(3S-OH,4S-OH,3'-OSO3H) = N[C@H](C(=O)O)[C@H](O)[C@@H](O)c1ccc(O)c(OS(=O)(=O)O)c1; pTerphenylCO(4''-OnC5H11) = CCCCCOc1ccc(-c2ccc(-c3ccc(C(=O)*)cc3)cc2)cc1; Orn(4R-OH,5R-OH) = O=C([C@H](C[C@@H](O)[C@@H](O)N[*:3])N[*:1])[*:2]; hTyr(3S-OH,4S-OH) = N[C@H](C(=O)O)[C@H](O)[C@@H](O)c1ccc(O)cc1; Pro(3S-OH,4S-Me) = C[C@H]1CN[C@H](C(=O)O)[C@H]1O; X1 = CCCCCOc1ccc(-c2cc(-c3ccc(C(=O)*)cc3)no2)cc1; Gln(3R-OH) = NC(=O)C[C@@H](O)[C@H](N)C(=O)O; Hyp = O=C(O)[C@@H]1C[C@@H](O)CN1
# How the values were obtained:
# A. fumigatus ATCC 13073 = assay: Antifungal susceptibility testing (MEC, CLSI M38-A2); type: cell-based, Aspergillus fumigatus; conditions: for Drug susceptibility testing result, ATCC 13073: 24 h, Fig 1B
# Description: (§1) Minimum effective concentrations (MECs) for A. fumigatus strains were determined according to CLSI document M38-A2 ([48]) and defined as the lowest drug concentration that led to the growth of small, rounded, compact hyphal forms compared to the hyphal growth seen in the drug-free growth control wells. The following drugs (supplier) were tested: caspofungin (Merck & Co., Inc.), micafungin (Astellas Pharma US, Inc.), anidulafungin (Pfizer Inc.), itraconazole (Sigma-Aldrich), voriconazole (Pfizer Inc.), and amphotericin B (Sigma-Aldrich). In addition, rezafungin and ibrexafungerp were obtained from Cidara Therapeutics and Scynexis Inc., respectively.
# A. fumigatus RG101 [1] = type: cell-based, Aspergillus fumigatus; conditions: for Growth phenotype of RG101 with drug alone: 1 μg/ml drug, RPMI 1640, absence of CAS; for Growth phenotype of RG101 with drug alone / Drug susceptibility testing result, RG101: 24 h; for Drug susceptibility testing result, RG101: Fig 1B
# Description: The following drugs (supplier) were tested: caspofungin (Merck & Co., Inc.), micafungin (Astellas Pharma US, Inc.), anidulafungin (Pfizer Inc.), itraconazole (Sigma-Aldrich), voriconazole (Pfizer Inc.), and amphotericin B (Sigma-Aldrich). In addition, rezafungin and ibrexafungerp were obtained from Cidara Therapeutics and Scynexis Inc., respectively.
# [2] = test system: Aspergillus fumigatus clinical isolate 117; assay: Antifungal susceptibility testing (MEC, CLSI M38-A2); type: cell-based; conditions: clinical isolate 117, fks1 WT
# Description: as §1
# [3] = test system: Aspergillus fumigatus clinical isolate 2770; assay: as above; type: cell-based; conditions: clinical isolate 2770, fks1 WT
# Description: as §1
# [4] = test system: Aspergillus fumigatus clinical isolate 32315; assay: as above; type: cell-based; conditions: clinical isolate 32315, fks1 WT
# Description: as §1
# [5] = test system: Aspergillus fumigatus clinical isolate 32458; assay: as above; type: cell-based; conditions: clinical isolate 32458, fks1 WT
# Description: as §1
# [6] = test system: Aspergillus fumigatus clinical isolate 68284B; assay: as above; type: cell-based; conditions: fks1 WT
# Description: as §1
# [7] = test system: A. fumigatus S679P (fks1 Ser-679-Pro mutant); assay: as above; type: cell-based, Aspergillus fumigatus
# Description: as §1
# A. fumigatus RG101 [8] = assay: Acute pulmonary aspergillosis model in neutropenic DBA/2 mice, lung fungal burden by qPCR; type: in vivo, Aspergillus fumigatus
# Description: Resistance of RG101 to CAS in vivo was tested in an acute pulmonary aspergillosis model. Thirty inbred DBA/2 mice were rendered neutropenic and infected with 1 × 10^6 RG101 conidia intratracheally. The mice were then treated with CAS (5 mg/kg of body weight), MFG (5 mg/kg), or vehicle daily for 5 days, and lung burdens were determined using quantitative PCR (qPCR). Details of the experiment are provided in Text S1 in the supplemental material.
# All animal experiments performed were approved by the Rutgers University Institutional Animal Care and Use Committee. Thirty female DBA/2 mice [The Jackson Laboratory, Bar Harbor, ME] were used in the experiment. The mice were housed in cages equipped with HEPA filters and were allowed free access to food and water. To establish neutropenia, mice were immunosuppressed with cyclophosphamide on days -4 (150 mg/kg), -1 and +2 (100 mg/kg) intraperitoneally (ip) and hydrocortisone on day -1 (200 mg/kg) via subcutaneous injection (sc). The animals were given prophylaxis sc ceftazidime (50 mg/kg) on all days to prevent secondary bacterial infections. A. fumigatus RG101 was streaked out from a frozen glycerol stock and cultured on Potato dextrose agar (PDA) slant for 2 days. The spores were harvested in phosphate-buffered saline (PBS) with 0.05% (v/v) Tween 20 and counted in a hemocytometer. The mice were briefly anesthetized IP Ketamine (65 mg/kg)/Xylazine (5 mg/kg) and infected with 1×10^6 spores of RG101 in 25 µL volume via intratracheal instillation. The 30 RG101 infected mice were randomized into following treatment arms for IP treatment: vehicle, CAS (5 mg/kg), and MFG (5 mg/kg). The first treatment was given at 3 h post infection (PI) and continued daily treatments were administered. On day 5 PI, mice were humanely euthanized via CO2 narcosis. Lungs were excised and homogenized in 1 ml of sterile PBS using a 2 ml tube containing ceramic spheres by MP Biomedicals (116913500). Tissue was then homogenized in 20 s bursts in a mini bead beater (MP FastPrep-24) followed by cooling on ice. DNA was then isolated from an aliquot of the lung homogenate (100 μl) using the QIAamp DNA Mini Kit by Qiagen (51304) and analyzed by real-time quantitative PCR (qPCR) using primers specific for A. fumigatus 18S rRNA genes (Wiederhold et al 2004).
# [9] = target: β-(1,3)-D-glucan synthase of RG101 (Aspergillus fumigatus, UniProt Q4WLT4); assay: Glucan synthase kinetic inhibition assay, enzyme from RG101; type: biochemical; conditions: enzyme from RG101 grown at 4 μg/ml CAS
# Description: ATCC 13073 or RG101 was grown in liquid YPD medium at 37°C for 16 h. Partially purified glucan synthase was isolated by the product entrapment method, as previously described ([21]). Sensitivity to echinocandin drugs was measured by glucan synthase assay, using a 96-well multiscreen high-throughput screen filtration system (Millipore Corporation, Bedford, MA) in a final volume of 100 μl. Inhibition of the enzyme by the drug was analyzed after incubation of the enzyme with a radioactive substrate over a broad range of concentrations (0 to 10,000 ng/ml) of echinocandins for 1 h at room temperature. Radioactivity from the enzyme product, β-(1,3)-D-glucan, was measured. Inhibition profiles were determined using a sigmoidal response curve fitting algorithm with GraphPad Prism software (v 7.04).
# To study the effect of lipids on the enzyme, dihydrosphingosine, phytosphingosine, or phytoceramide C2 (Sigma-Aldrich D6783, P2795, and C8105, respectively) was added directly to the assay mixture and coincubated with an echinocandin for 1 h at room temperature.
# [10] = test system: reactive oxygen species (ROS) in A. fumigatus RG101; assay: ROS production, DCFDA fluorescence assay; type: cell-based, Aspergillus fumigatus; conditions: RG101
# Description: ROS production in mycelia was measured using a protocol previously described by Blatzer et al. ([51]) with a few changes. Suspensions of 10^4 spores/ml of ATCC 13073 and RG101 were grown in static culture in complete supplement mixture (CSM) medium for 16 h in a 96-well microplate at 37°C. After incubation, the mycelia were washed once with CSM, 10 μM 2′,7′–dichlorofluorescin diacetate (DCFDA) dye was added, and cells were incubated in the dark at 37°C for 30 min. Cells were then washed three times with phosphate-buffered saline (PBS), and a final concentration of 1 μg/ml of each echinocandin in CSM medium was added to different wells. Fluorescence intensity (excitation at 485 nm and emission at 530 nm) was measured for 1 h in a microplate reader (Tecan Infinite M200 Pro). Mycelia stained with DCFDA without any drug were used as a control.
# [11] = thiourea 15 mM with CAS 1 μg/ml
# Sequence of β-(1,3)-D-glucan synthase of RG101 (Q4WLT4 1-1904): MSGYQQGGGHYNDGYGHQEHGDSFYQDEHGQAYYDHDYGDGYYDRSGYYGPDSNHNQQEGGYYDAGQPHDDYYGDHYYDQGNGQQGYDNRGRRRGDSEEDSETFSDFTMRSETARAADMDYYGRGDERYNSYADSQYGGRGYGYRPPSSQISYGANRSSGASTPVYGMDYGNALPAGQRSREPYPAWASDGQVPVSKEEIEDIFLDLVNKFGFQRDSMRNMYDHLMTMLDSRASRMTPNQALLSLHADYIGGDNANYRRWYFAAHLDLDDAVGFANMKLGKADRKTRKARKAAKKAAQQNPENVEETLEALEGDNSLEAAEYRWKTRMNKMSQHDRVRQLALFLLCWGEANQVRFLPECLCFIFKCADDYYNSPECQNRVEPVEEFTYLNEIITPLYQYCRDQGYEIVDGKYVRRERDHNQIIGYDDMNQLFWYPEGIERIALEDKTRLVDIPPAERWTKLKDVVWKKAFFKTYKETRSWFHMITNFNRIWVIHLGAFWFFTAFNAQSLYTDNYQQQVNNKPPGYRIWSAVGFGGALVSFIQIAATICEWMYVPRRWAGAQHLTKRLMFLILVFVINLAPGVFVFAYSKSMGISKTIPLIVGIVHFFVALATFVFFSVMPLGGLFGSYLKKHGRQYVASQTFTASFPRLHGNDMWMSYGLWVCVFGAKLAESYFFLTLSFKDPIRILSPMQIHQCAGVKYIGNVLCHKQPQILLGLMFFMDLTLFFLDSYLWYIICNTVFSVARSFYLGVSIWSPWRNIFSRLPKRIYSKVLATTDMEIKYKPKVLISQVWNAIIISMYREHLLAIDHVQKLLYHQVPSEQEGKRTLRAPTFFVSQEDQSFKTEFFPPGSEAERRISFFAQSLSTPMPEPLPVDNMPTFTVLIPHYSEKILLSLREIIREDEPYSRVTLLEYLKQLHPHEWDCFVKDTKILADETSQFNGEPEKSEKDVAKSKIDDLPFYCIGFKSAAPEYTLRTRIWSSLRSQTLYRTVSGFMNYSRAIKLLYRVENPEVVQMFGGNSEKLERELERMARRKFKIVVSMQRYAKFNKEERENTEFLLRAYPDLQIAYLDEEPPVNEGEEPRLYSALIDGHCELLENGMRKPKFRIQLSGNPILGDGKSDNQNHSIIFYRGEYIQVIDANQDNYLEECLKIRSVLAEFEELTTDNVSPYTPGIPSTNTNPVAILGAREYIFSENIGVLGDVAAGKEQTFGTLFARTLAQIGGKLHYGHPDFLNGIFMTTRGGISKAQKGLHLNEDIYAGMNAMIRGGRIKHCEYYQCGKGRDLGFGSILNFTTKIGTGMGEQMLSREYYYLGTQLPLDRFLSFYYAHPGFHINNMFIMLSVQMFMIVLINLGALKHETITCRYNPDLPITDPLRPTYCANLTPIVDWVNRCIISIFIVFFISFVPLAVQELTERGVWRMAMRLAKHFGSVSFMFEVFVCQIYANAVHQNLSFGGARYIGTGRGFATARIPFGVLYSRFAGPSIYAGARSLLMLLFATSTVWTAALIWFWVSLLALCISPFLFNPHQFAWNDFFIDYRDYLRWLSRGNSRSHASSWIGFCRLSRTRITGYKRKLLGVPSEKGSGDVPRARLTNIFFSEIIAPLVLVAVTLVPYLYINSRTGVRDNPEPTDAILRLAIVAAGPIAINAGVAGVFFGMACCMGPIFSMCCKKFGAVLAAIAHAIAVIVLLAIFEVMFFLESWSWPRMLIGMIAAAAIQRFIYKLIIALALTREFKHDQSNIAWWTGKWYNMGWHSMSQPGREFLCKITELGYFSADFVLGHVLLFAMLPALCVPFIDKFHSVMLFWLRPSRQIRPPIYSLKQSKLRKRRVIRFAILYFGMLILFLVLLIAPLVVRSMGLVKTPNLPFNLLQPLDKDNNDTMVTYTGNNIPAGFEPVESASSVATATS
SMILES,"Drug susceptibility testing result, ATCC 13073 (A. fumigatus ATCC 13073) [µg/mL]",Growth phenotype of RG101 with drug in combination with CAS (A. fumigatus RG101 [1]),Growth phenotype of RG101 with drug alone (A. fumigatus RG101 [1]),"Drug susceptibility testing result, RG101 (A. fumigatus RG101 [1]) [µg/mL]",other results
"CCCCCOc1ccc(-c2ccc(-c3ccc(C(=O)N[C@H]4C[C@@H](O)[C@@H](O)NC(=O)[C@@H]5[C@@H](O)[C@@H](C)CN5C(=O)[C@H]([C@@H](C)O)NC(=O)[C@H]([C@H](O)[C@@H](O)c5ccc(O)cc5)NC(=O)[C@@H]5C[C@@H](O)CN5C(=O)[C@H]([C@@H](C)O)NC4=O)cc3)cc2)cc1 [ANF, anidulafungin] ({pTerphenylCO(4''-OnC5H11)}-[Orn(4R-OH,5R-OH)]T[Hyp][hTyr(3S-OH,4S-OH)]T[Pro(3S-OH,4S-Me)]; lactam 1-C)",0.03,cross-resistance,sensitive,0.03,–
"C[C@@H]1[C@H](O)[C@@H](C)/C=C/C=C/C=C/C=C/C=C/C=C/C=C/[C@H](O[C@@H]2O[C@H](C)[C@@H](O)[C@H](N)[C@@H]2O)C[C@@H]2O[C@](O)(C[C@@H](O)C[C@@H](O)[C@H](O)CC[C@@H](O)C[C@@H](O)CC(=O)O[C@H]1C)C[C@H](O)[C@H]2C(=O)O [Amphotericin B, amphotericin B]",0.5,–,–,0.5,–
"CC(C)[C@@H](C)[C@@]1(C)CC[C@]2(C)[C@H]3CC[C@@H]4[C@@]5(COC[C@@]4(C)[C@@H](OC[C@](C)(N)C(C)(C)C)[C@H](n4ncnc4-c4ccncc4)C5)C3=CC[C@@]2(C)[C@@H]1C(=O)O [IFG, ibrexafungerp]",–,cross-resistance,sensitive,–,–
"CCC(C)n1ncn(-c2ccc(N3CCN(c4ccc(OCC5COC(Cn6cncn6)(c6ccc(Cl)cc6Cl)O5)cc4)CC3)cc2)c1=O (stereo not drawn) [Itraconazole, itraconazole]",0.5,–,–,0.5,–
"CCCCCOc1ccc(-c2cc(-c3ccc(C(=O)N[C@H]4C[C@@H](O)[C@@H](O)NC(=O)[C@@H]5[C@@H](O)[C@@H](C)CN5C(=O)[C@H]([C@H](O)CC(N)=O)NC(=O)[C@H]([C@H](O)[C@@H](O)c5ccc(O)c(OS(=O)(=O)O)c5)NC(=O)[C@@H]5C[C@@H](O)CN5C(=O)[C@H]([C@@H](C)O)NC4=O)cc3)no2)cc1 [MFG, micafungin] (X1-[Orn(4R-OH,5R-OH)]T[Hyp][hTyr(3S-OH,4S-OH,3'-OSO3H)][Gln(3R-OH)][Pro(3S-OH,4S-Me)]; lactam 1-C)",0.03,cross-resistance,sensitive,0.03,"MEC (minimum effective concentration) [2]: 4 µg/mL; MEC (minimum effective concentration) [3]: 2 µg/mL; MEC (minimum effective concentration) [4]: 2 µg/mL; MEC (minimum effective concentration) [5]: 2 µg/mL; MEC (minimum effective concentration) [6]: 4 µg/mL; MEC (minimum effective concentration) (A. fumigatus ATCC 13073; ATCC 13073, fks1 WT): 0.03 µg/mL; MEC (minimum effective concentration) ([7]; S679P, fks1 Ser-679-Pro): 16 µg/mL; Decrease in lung burden versus vehicle-treated group (A. fumigatus RG101 [8]; RG101, 5 mg/kg daily for 5 days): ~5 fold; Average fungal lung burden (A. fumigatus RG101 [8]; RG101 intratracheal, 5 mg/kg daily IP for 5 days, qPCR): 5.2 ng fungal DNA per lung; IC50 [9]: > 7.87 µM"
"CCCCCOc1ccc(-c2ccc(-c3ccc(C(=O)N[C@H]4C[C@@H](O)[C@@H](OCC[N+](C)(C)C)NC(=O)[C@@H]5[C@@H](O)[C@@H](C)CN5C(=O)[C@H]([C@@H](C)O)NC(=O)[C@H]([C@H](O)[C@@H](O)c5ccc(O)cc5)NC(=O)[C@@H]5C[C@@H](O)CN5C(=O)[C@H]([C@@H](C)O)NC4=O)cc3)cc2)cc1 [RZF, rezafungin] ({pTerphenylCO(4''-OnC5H11)}-[Orn(4R-OH,5R-OCH2CH2NMe3+)]T[Hyp][hTyr(3S-OH,4S-OH)]T[Pro(3S-OH,4S-Me)]; lactam 1-C)",–,cross-resistance,sensitive,–,–
"C[C@@H](c1ncncc1F)[C@](O)(Cn1cncn1)c1ccc(F)cc1F [Voriconazole, voriconazole]",0.12,–,–,0.12,–
CCCCCC[C@H]1C(=O)O[C@H](C)[C@H](NC(=O)c2cccc(NC=O)c2O)C(=O)O[C@@H](C)[C@@H]1OC(=O)CC(C)C [antimycin A],–,–,–,–,Decrease of CAS-induced ROS production ([10]; 0.5 μg/ml antimycin A): over 2 fold
NC(N)=S [thiourea],–,–,–,–,"Effect on CAS phenotype of ATCC 13073 (A. fumigatus ATCC 13073; [11]): no change; Effect on CAS resistance of S679P [7, 11]: no effect; Effect on CAS-induced breakthrough resistance phenotype of RG101 (A. fumigatus RG101 [1]; [11]): reversed; Reduction of CAS-induced ROS levels ([10]; 15 mM thiourea): 4 fold"
